Read-outs that look alike come from different tables or passages of the source.
Columns and labels:
HIV-1IIIB = details: cited from earlier work; for EC50: HIV-1IIIB infected H9 lymphocytes
mock-infected MT-4 cell [1] = details: read-out: IC50, concentration that inhibits mock-infected MT-4 cell growth by 50%; mock-infected MT-4 cells; cited from earlier work
HIV-1NL4-3 = HIV-1NL4-3 inhibition assay in MT-4 lymphocytes; assay type: cell-based; details: HIV-1NL4-3 infected MT-4 cells; for fold more active than the corresponding compound not linked to AZT: 49 vs 63, 52 vs 64
mock-infected MT-4 cell [2] = experiment: Growth inhibition of mock-infected MT-4 cells; assay type: cell-based; details: Homo sapiens, MT4, read-out: IC50, concentration that inhibits mock-infected MT-4 cell growth by 50%

SMILES | EC50 (HIV-1IIIB) | anti-HIV activity in words (HIV-1NL4-3) | other results
C=C(C)[C@@H]1CC[C@]2(C(=O)O)CC[C@]3(C)[C@H](CC[C@@H]4[C@@]5(C)CC[C@H](OC(=O)CC(C)(C)C(=O)O)C(C)(C)[C@@H]5CC[C@]43C)[C@@H]12 [Compound 2, 3-O-(3',3'-dimethylsuccinyl)betulinic acid] | < 0.35 nM |  | IC50 (mock-infected MT-4 cell [1]): > 5000 nM
CC(C)[C@@H]1CC[C@]2(CO)CC[C@]3(C)[C@H](CC[C@@H]4[C@@]5(C)CC[C@H](OC(=O)CCCC(=O)O)C(C)(C)[C@@H]5CC[C@]43C)[C@@H]12 [Compound 4, 3-O-glutaryldihydrobetulin] | 0.02 nM |  | 
C=C(C)[C@@H]1CC[C@]2(COC(=O)CC(C)(C)CC(=O)O)CC[C@]3(C)[C@H](CC[C@@H]4[C@@]5(C)CC[C@H](OC(=O)CC(C)(C)CC(=O)O)C(C)(C)[C@@H]5CC[C@]43C)[C@@H]12 [Compound 5, 3,28-di-O-(3',3'-dimethylglutaryl)betulin] | 0.66 nM |  | 
C=C(C)[C@@H]1CC[C@]2(COC(=O)C(C)(C)CC(=O)O)CC[C@]3(C)[C@H](CC[C@@H]4[C@@]5(C)CC[C@H](OC(=O)CC(C)(C)C(=O)O)C(C)(C)[C@@H]5CC[C@]43C)[C@@H]12 [Compound 6, 3-O-(3',3'-dimethylsuccinyl)-28-O-(2",2"-dimethylsuccinyl)betulin] | 0.87 nM |  | fold more potent against HIV replication than its isomer with a 3,3-dimethylsuccinyl side chain at C-28 (HIV-1IIIB; H9 lymphocytes assay): 230 fold
C=C(C)[C@@H]1CC[C@]2(COC(=O)CCC(=O)OC[C@H]3O[C@@H](n4cc(C)c(=O)[nH]c4=O)C[C@@H]3N=[N+]=[N-])CC[C@]3(C)[C@H](CC[C@@H]4[C@@]5(C)CC[C@H](OC(=O)CC(C)(C)C(=O)O)C(C)(C)[C@@H]5CC[C@]43C)[C@@H]12 [Compound 49, 3'-Azido-3'-deoxythymidine-5'-yl 3-O-(3',3'-dimethylsuccinyl)-lup-20(29)en-28-yl succinate] |  |  | fold more active than the corresponding compound not linked to AZT (HIV-1NL4-3): four
C=C(C)[C@@H]1CC[C@]2(COC(=O)CCCC(=O)OC[C@H]3O[C@@H](n4cc(C)c(=O)[nH]c4=O)C[C@@H]3N=[N+]=[N-])CC[C@]3(C)[C@H](CC[C@@H]4[C@@]5(C)CC[C@H](OC(=O)CC(C)(C)C(=O)O)C(C)(C)[C@@H]5CC[C@]43C)[C@@H]12 [Compound 52, 3'-Azido-3'-deoxythymidine-5'-yl 3-O-(3',3'-dimethylsuccinyl)-lup-20(29)en-28-yl glutarate] |  |  | fold more active than the corresponding compound not linked to AZT (HIV-1NL4-3): five
C=C(C)[C@@H]1CC[C@]2(COC(=O)CC(C)(C)CC(=O)OC[C@H]3O[C@@H](n4cc(C)c(=O)[nH]c4=O)C[C@@H]3N=[N+]=[N-])CC[C@]3(C)[C@H](CC[C@@H]4[C@@]5(C)CC[C@H](OC(=O)CC(C)(C)CC(=O)O)C(C)(C)[C@@H]5CC[C@]43C)[C@@H]12 [Compound 54, 3'-Azido-3'-deoxythymidine-5'-yl 3-O-(3',3'-dimethylglutaryl)-lup-20(29)en-28-yl 3,3-dimethylglutarate] |  | only moderate activity | 
Cc1cn([C@H]2C[C@H](N=[N+]=[N-])C(COC(=O)CC(C)(C)CC(=O)OC[C@]34CC[C@@H](C(C)C)[C@@H]3[C@H]3CC[C@@H]5[C@@]6(C)CC[C@H](OC(=O)CCCC(=O)O)C(C)(C)[C@@H]6CC[C@@]5(C)[C@]3(C)CC4)O2)c(=O)[nH]c1=O (stereo partly drawn) [Compound 61, 3'-Azido-3'-deoxythymidine-5'-yl 3-O-glutaryl-lup-28-yl 3,3-dimethylglutarate] |  | the weakest compound | 
Cc1cn([C@H]2C[C@H](N=[N+]=[N-])C(COC(=O)CC(C)(C)CC(=O)OC[C@]34CC[C@@H](C(C)C)[C@@H]3[C@H]3CC[C@@H]5[C@@]6(C)CC[C@H](OC(=O)CC(C)(C)CC(=O)O)C(C)(C)[C@@H]6CC[C@@]5(C)[C@]3(C)CC4)O2)c(=O)[nH]c1=O (stereo partly drawn) [Compound 62, 3'-Azido-3'-deoxythymidine-5'-yl 3-O-(3',3'-dimethylglutaryl)-lup-28-yl 3,3-dimethylglutarate] |  | only moderate activity | 
C=C(C)[C@@H]1CC[C@]2(COC(=O)CCCC(=O)O)CC[C@]3(C)[C@H](CC[C@@H]4[C@@]5(C)CC[C@H](OC(=O)CC(C)(C)C(=O)O)C(C)(C)[C@@H]5CC[C@]43C)[C@@H]12 [Compound 64] |  |  | IC50 (mock-infected MT-4 cell [2]): > 14600 nM

— article PMC3016297 (Bioorganic & medicinal chemistry, 2010)
